These results are taken from ChEMBL document CHEMBL6134827, “The discovery of novel antimicrobial peptides against drug-resistant bacteria based on fragments fusion strategy” (Eur J Med Chem, 2025).

Holding throughout (type): functional
In test [1] the test system is Escherichia coli. As to the kind of experiment: Antimicrobial activity against Escherichia coli ATCC 25922 assessed as inhibition of visible microbial growth incubated for 18 hrs by broth microdilution method. (In general: Dilution methods test growth across graded concentrations, often in twofold steps.)
The subject of test [2] is Pseudomonas aeruginosa. Nature of the test: Antimicrobial activity against multidrug resistant Pseudomonas aeruginosa assessed as inhibition of visible microbial growth incubated for 18 hrs by broth microdilution method.
Test [3] concerns Escherichia coli. Nature of the test: Antimicrobial activity against multidrug resistant Escherichia coli assessed as inhibition of visible microbial growth incubated for 18 hrs by broth microdilution method.
Test [4] concerns Staphylococcus aureus. As to the kind of experiment: Antimicrobial activity against multidrug resistant Staphylococcus aureus assessed as inhibition of visible microbial growth incubated for 18 hrs by broth microdilution method.
Test [5] deals with Staphylococcus aureus. As to the kind of experiment: Antimicrobial activity against Staphylococcus aureus ATCC 29213 assessed as inhibition of visible microbial growth incubated for 18 hrs by broth microdilution method.
In test [6] the test system is Acinetobacter baumannii. Nature of the test: Antimicrobial activity against multidrug resistant Acinetobacter baumannii assessed as inhibition of visible microbial growth incubated for 18 hrs by broth microdilution method.

By MIC is commonly meant the least concentration at which growth counts as inhibited.

Starred links: 1 amine or outer side, 2 acyl side, 3 side chain; linkers in the order of their positions; H or OH if unused. Non-standard residues stand in square brackets, D forms with d. Residues, ends and D or L forms follow the SMILES beside them. Groups on a side chain read outwards from the residue. εLys = N[C@@H](CCCCN[*:1])C(=O)[*:2]; Dab = NCC[C@H](N)C(=O)O

Regarding `CC(C)C[C@H](NC(=O)CN)C(=O)N[C@@H](CCCNC(=N)N)C(=O)N[C@@H](CCN)C(=O)N[C@@H](Cc1c[nH]c2ccccc12)C(=O)N[C@@H](CC(C)C)C(=O)N[C@@H](CCCNC(=N)N)C(=O)N[C@@H](CCCCN)C(=O)N[C@@H](Cc1ccccc1)C(=O)N[C@@H](CCCCN)C(=O)N[C@@H](CCCCN)C(=O)N[C@@H](Cc1ccccc1)C(=O)N[C@@H](Cc1c[nH]c2ccccc12)C(=O)O` (H-GLR[Dab]WLRKFKKFW-OH), the MIC in test [1] amounted to 9.1 µM; in test [2], 4.5 µM; in test [3] it was 9.1 µM; in test [4], 18.1 µM; in test [5] it was 18.1 µM; in test [6], 4.5 µM.

In the case of `CC(C)C[C@H](NC(=O)CN)C(=O)N[C@@H](CCCNC(=N)N)C(=O)N[C@@H](CCCCN)C(=O)N[C@@H](Cc1c[nH]c2ccccc12)C(=O)N[C@@H](CC(C)C)C(=O)N[C@@H](CCCNC(=N)N)C(=O)NCCCC[C@H](N)C(=O)N[C@@H](Cc1ccccc1)C(=O)N[C@@H](CCCCN)C(=O)N[C@@H](CCCCN)C(=O)N[C@@H](Cc1ccccc1)C(=O)N[C@@H](Cc1c[nH]c2ccccc12)C(=O)O` (H-GLRKWLR[εLys]FKKFW-OH), the MIC in test [1] is 17.9 µM; in test [2], 17.9 µM; in test [3], 35.7 µM; in test [4], 35.7 µM; in test [5], 35.7 µM; in test [6], 35.7 µM.

Turning to H-GLRKFLRKFKKFGK-OH, the MIC in test [1] amounted to 18.2 µM; in test [2], 73 µM; in test [3], 36.5 µM; in test [4], 73 µM; in test [5], 36.5 µM; in test [6], 36.5 µM.

Consider H-GLRKWLRKFKKFWK-OH, for which the MIC in test [1] worked out at 8.3 µM; in test [2], 8.3 µM; in test [3] it was 8.3 µM; in test [4], 16.6 µM; in test [5], 16.6 µM; in test [6], 8.3 µM.

On to H-GLRKFLRKFKKFWK-OH, for which the minimal inhibitory concentration (MIC) in test [1] was 8.5 µM; in test [2] it was 17 µM; in test [3], 17 µM; in test [4], 34 µM; in test [5], 34 µM; in test [6] it was 8.5 µM.

Regarding `CC(C)C[C@H](NC(=O)CN)C(=O)N[C@@H](CCCNC(=N)N)C(=O)N[C@@H](CCCCN)C(=O)N[C@@H](Cc1c[nH]c2ccccc12)C(=O)N[C@@H](CC(C)C)C(=O)N[C@@H](CCCNC(=N)N)C(=O)N[C@@H](CCCCN)C(=O)N[C@@H](Cc1ccccc1)C(=O)N[C@@H](CCCCN)C(=O)N[C@@H](CCN)C(=O)N[C@@H](Cc1ccccc1)C(=O)N[C@@H](Cc1c[nH]c2ccccc12)C(=O)O` (H-GLRKWLRKFK[Dab]FW-OH), the minimum inhibitory concentration (MIC) is 9.1 µM in test [1]; 4.5 µM in test [2]; 4.5 µM in test [3]; 18.1 µM in test [4]; 9.1 µM in test [5]; 4.5 µM in test [6].

`CC(C)C[C@H](NC(=O)CN)C(=O)N[C@@H](CCCNC(=N)N)C(=O)N[C@@H](CCCCN)C(=O)N[C@@H](Cc1c[nH]c2ccccc12)C(=O)N[C@@H](CC(C)C)C(=O)N[C@@H](CCCNC(=N)N)C(=O)N[C@@H](CCCCN)C(=O)N[C@@H](Cc1ccccc1)C(=O)N[C@@H](CCN)C(=O)N[C@@H](CCCCN)C(=O)N[C@@H](Cc1ccccc1)C(=O)N[C@@H](Cc1c[nH]c2ccccc12)C(=O)O` (H-GLRKWLRKF[Dab]KFW-OH): the minimum inhibitory concentration (MIC) in test [1] was found to be 9.1 µM; in test [2], 4.5 µM; in test [3], 4.5 µM; in test [4] it was 18.1 µM; in test [5] it was 18.1 µM; in test [6], 4.5 µM.

As to `CC(C)C[C@H](NC(=O)CN)C(=O)N[C@@H](CCCNC(=N)N)C(=O)N[C@@H](CCCCN)C(=O)N[C@@H](Cc1c[nH]c2ccccc12)C(=O)N[C@@H](CC(C)C)C(=O)N[C@@H](CCCNC(=N)N)C(=O)N[C@@H](CCN)C(=O)N[C@@H](Cc1ccccc1)C(=O)N[C@@H](CCN)C(=O)N[C@@H](CCN)C(=O)N[C@@H](Cc1ccccc1)C(=O)N[C@@H](Cc1c[nH]c2ccccc12)C(=O)O` (H-GLRKWLR[Dab]F[Dab][Dab]FW-OH), the MIC was found to be 9.4 µM in test [1]; 4.7 µM in test [2]; 4.7 µM in test [3]; 9.4 µM in test [4]; 4.7 µM in test [5]; 4.7 µM in test [6].

As for `CC(C)C[C@H](NC(=O)CN)C(=O)N[C@@H](CCCNC(=N)N)C(=O)N[C@H](CCCCN)C(=O)N[C@@H](Cc1c[nH]c2ccccc12)C(=O)N[C@@H](CC(C)C)C(=O)N[C@@H](CCCNC(=N)N)C(=O)N[C@@H](CCN)C(=O)N[C@@H](Cc1ccccc1)C(=O)N[C@@H](CCCCN)C(=O)N[C@@H](CCCCN)C(=O)N[C@@H](Cc1ccccc1)C(=O)N[C@@H](Cc1c[nH]c2ccccc12)C(=O)O`, the MIC in test [1] is 18.1 µM; in test [2], 4.5 µM; in test [3] it was 9.1 µM; in test [4] it was 18.1 µM; in test [5] it was 18.1 µM; in test [6], 4.5 µM.

Turning to H-GLRKRLRKFKKFGK-OH, the MIC in test [1] is 72.7 µM; in test [2], greater than 72.7 µM; in test [3], 72.7 µM; in test [4] it was greater than 72.7 µM; in test [5], 72.7 µM; in test [6], 72.7 µM.

Take `CC(C)C[C@H](NC(=O)CN)C(=O)N[C@@H](CCCNC(=N)N)C(=O)N[C@@H](CCCCN)C(=O)N[C@@H](Cc1c[nH]c2ccccc12)C(=O)N[C@@H](CC(C)C)C(=O)N[C@@H](CCCNC(=N)N)C(=O)N[C@@H](CCCCN)C(=O)N[C@@H](Cc1ccccc1)C(=O)N[C@@H](CCN)C(=O)N[C@@H](CCN)C(=O)N[C@@H](Cc1ccccc1)C(=O)N[C@@H](Cc1c[nH]c2ccccc12)C(=O)O` (H-GLRKWLRKF[Dab][Dab]FW-OH): the MIC in test [1] is 9.2 µM; in test [2], 4.6 µM; in test [3], 9.2 µM; in test [4], 9.2 µM; in test [5], 18.4 µM; in test [6] it was 4.6 µM.

As for `CC(C)C[C@H](NC(=O)CN)C(=O)N[C@@H](CCCNC(=N)N)C(=O)NCCCC[C@H](N)C(=O)N[C@@H](Cc1c[nH]c2ccccc12)C(=O)N[C@@H](CC(C)C)C(=O)N[C@@H](CCCNC(=N)N)C(=O)N[C@@H](CCCCN)C(=O)N[C@@H](Cc1ccccc1)C(=O)N[C@@H](CCCCN)C(=O)N[C@@H](CCCCN)C(=O)N[C@@H](Cc1ccccc1)C(=O)N[C@@H](Cc1c[nH]c2ccccc12)C(=O)O` (H-K([Arg-Leu-Gly])WLRKFKKFW-OH), the MIC in test [1] is 8.9 µM; in test [2], 8.9 µM; in test [3], 35.7 µM; in test [4], 35.7 µM; in test [5], 35.7 µM; in test [6], 35.7 µM.

Take `CC(C)C[C@H](NC(=O)CN)C(=O)N[C@@H](CCCNC(=N)N)C(=O)N[C@@H](CCCCN)C(=O)N[C@@H](Cc1c[nH]c2ccccc12)C(=O)N[C@@H](CC(C)C)C(=O)N[C@@H](CCCNC(=N)N)C(=O)N[C@@H](CCCCN)C(=O)N[C@@H](Cc1ccccc1)C(=O)N[C@@H](CCCCN)C(=O)NCCCC[C@H](N)C(=O)N[C@@H](Cc1ccccc1)C(=O)N[C@@H](Cc1c[nH]c2ccccc12)C(=O)O` (H-GLRKWLRKFK[εLys]FW-OH): the MIC in test [1] came out at 4.5 µM; in test [2] it was 8.9 µM; in test [3], 35.7 µM; in test [4], 17.9 µM; in test [5] it was 17.9 µM; in test [6] it was 17.9 µM.
